Assay results reported in patent US11883452B2, “Use of combination or composition of Radix et Rhizoma Notoginseng and aspirin” (CHINESE ACADEMY OF MEDICAL SCIENCES INSTITUTE OF MEDICINAL …, priority 2017, dated 2024).

Columns and labels:
Assay type in all cases: in vivo, SD rats
[1] = tested on: platelets in platelet-rich plasma; experiment: Maximum platelet aggregation rate (ADP-induced, platelet-rich plasma) in MCAO/R rats; conditions: ADP 2 μmol/L
Method: 240 male SD rats were randomly divided into 8 groups, with 30 rats in each group, including a sham operated group, a middle cerebral artery occlusion (MCAO/R) model group, a group treated with the total saponins from Radix et Rhizoma Notoginseng at a dosage of 50 mg/kg, a group treated with aspirin at a dosage of 10 mg/kg, a group treated with aspirin at a dosage of 5 mg/kg, a group treated with the combination of the total saponins from Radix et Rhizoma Notoginseng at a dosage of 50 mg/kg and aspirin at a dosage of 5 mg/kg. The rats in the groups treated with the total saponins from Radix et Rhizoma Notoginseng and/or aspirin were administrated intragastrically with the total saponins from Radix et Rhizoma Notoginseng and/or aspirin for a week before MCAO, and the rats in the sham operated group and model group were administrated intragastrically with an equivalent volume of distilled water. […]
3.6 mL of blood was taken from the rats (n=10), anticoagulated with 3.8% sodium citrate (9:1), centrifuged at 150 g for 10 min to separate a platelet-rich plasma, and then centrifuged at 1500 g for 10 min to obtain a supernatant, which was platelet-poor plasma. […] Maximum aggregation within 5 minutes and maximum aggregation time of platelets in platelet-rich plasma were detected with a blood agglutination instrument.

rat duodenal microvilli = experiment: Ultrastructure of duodenal villi with transmission electron microscope; conditions: aspirin 10 mg/kg intragastrically daily for 4 weeks; rats
Method: (§1) 40 male SD rats were randomly divided into 4 groups, with 10 rats in each group, including a control group, a group treated with aspirin at a dosage of 10 mg/kg, a group treated with the total saponins from Radix et Rhizoma Notoginseng at a dosage of 100 mg/kg and aspirin at a dosage of 10 mg/kg, and a group treated with the total saponins from Radix et Rhizoma Notoginseng at a dosage of 100 mg/kg. The rats in the groups treated with the total saponins from Radix et Rhizoma Notoginseng and aspirin were administrated intragastrically with the total saponins from Radix et Rhizoma Notoginseng and aspirin daily for 4 weeks, and the rats in the control group were administrated intragastrically with an equivalent volume of normal saline daily.
After 4 weeks of administration, the duodenum was collected from rats in each group of rats and fixed in 2.5% glutaraldehyde buffer for 2 h, then washed with PH 7.4 buffer three times, and then soaked with 1% osmium tetroxide for 30 min, dehydrated with graded alcohol and acetone, and then embedded in epoxy resin 812. Ultra-thin slices were prepared, copper grids of 200 grid units were taken, the ultra-thin slices were again impregnated with uranyl acetate and lead citrate, and then analyzed under the electron microscope to observe changes in the ultrastructure of the duodenum in rats of each group.

[2] = tested on: middle cerebral artery occlusion (MCAO/R) model rats; experiment: Cerebral infarction volume by TTC staining in MCAO/R rats; conditions: 24 hours of reperfusion
Method: 240 male SD rats were randomly divided into 8 groups, with 30 rats in each group, including a sham operated group, a middle cerebral artery occlusion (MCAO/R) model group, a group treated with the total saponins from Radix et Rhizoma Notoginseng at a dosage of 50 mg/kg, a group treated with aspirin at a dosage of 10 mg/kg, a group treated with aspirin at a dosage of 5 mg/kg, a group treated with the combination of the total saponins from Radix et Rhizoma Notoginseng at a dosage of 50 mg/kg and aspirin at a dosage of 5 mg/kg. The rats in the groups treated with the total saponins from Radix et Rhizoma Notoginseng and/or aspirin were administrated intragastrically with the total saponins from Radix et Rhizoma Notoginseng and/or aspirin for a week before MCAO, and the rats in the sham operated group and model group were administrated intragastrically with an equivalent volume of distilled water.
Middle cerebral artery occlusion (MCAO) model was established by thread embolization method. The surgical procedure was carried out under strictly aseptic conditions mainly according to the following steps: The rats were anesthetized by intraperitoneal injection of ketamine (80 mg/kg) and xylazine (10 mg/kg). […]
Cerebral infarction volumes were determined by triphenyl tetrazolium chloride (TTC) staining. […] Cerebral infarction volumes were evaluated and calculated using Image-Pro plus 5.1 software.

[3] = tested on: middle cerebral artery occlusion (MCAO/R) model rats; experiment: Neurological evaluation (Longa's five-grade score) in MCAO/R rats
rat gastric mucosa = experiment: HE staining to detect pathological changes of gastric mucosa; conditions: aspirin 10 mg/kg intragastrically daily for 4 weeks; rats
Method: as §1
After 4 weeks of administration, gastric tissues were taken from rats in each group and fixed with 4% formaldehyde solution, routinely embedded in paraffin and cut into slices, and stained with HE to observe the degree of inflammatory lesions in the tissues.

[4] = tested on: middle cerebral artery occlusion (MCAO/R) model rats; experiment: Canine urea levels in serum, hippocampus and cerebral cortex by ELISA in MCAO/R rats
Method: Middle cerebral artery occlusion (MCAO) model was established by thread embolization method. The surgical procedure was carried out under strictly aseptic conditions mainly according to the following steps: The rats were anesthetized by intraperitoneal injection of ketamine (80 mg/kg) and xylazine (10 mg/kg). The common carotid artery (CCA), external carotid artery (ECA) and internal carotid artery (ICA) were fully exposed, the common carotid artery was clamped with a vascular clip, and the branches of the external carotid artery were electrocoagulated with a bipolar electrocoagulation forceps. The main trunk of the external carotid artery was freed and ligated at 3 to 4 mm from the bifurcation of the common carotid artery. The internal carotid artery was temporarily clamped with a vascular clip. Corneal scissors were used to make a small incision in the external carotid artery. A 4-0 monofilament nylon thread coated with methylpolysiloxane was inserted and was tied a loose knot at the small incision of the external carotid artery to block the blood reflux of the internal carotid artery. The clip was removed from the internal carotid artery, and the nylon thread was gently pushed into the internal carotid artery to reach the intracranial anterior cerebral artery to block an incision of the middle cerebral artery (MCA), with an insertion depth of about 18-22 mm. The clip was removed from the common carotid artery, and the subcutaneous tissue and skin were sutured layer by layer after disinfection, and 2 hours later the nylon thread was slowly withdrawn to perform reperfusion for 24 hours. The operation to the sham operated group is the same as the above except that nylon thread is not inserted. The rectum of all rats was maintained at a temperature of 37° C. throughout the experiment.
5 mL of blood was taken from the abdominal aorta of the rats (n=8), and centrifuged at 3000 rpm for 10 min to obtain a serum. Hippocampus and cerebral cortex were separated from the brain tissue, homogenized, and centrifuged at 3000 rpm for 10 min to obtain a supernatant. Serum MDA, SOD, CAT and GSH-Px levels were detected with kits available from Nanjing Jiancheng; levels of canine urea and inflammatory response indicators MCP-1, TNF-α, IL-1β, IL-4, IL-6 and IL-10 were detected with ELISA kits.

[5] = tested on: middle cerebral artery occlusion (MCAO/R) model rats; experiment: Serum inflammatory factors by ELISA in MCAO/R rats
[6] = tested on: myocardial ischemia reperfusion injury model rats; experiment: Three myocardial enzymes (AST, LDH, CK) in myocardial ischemia-reperfusion injury rats
Method: Rats in the groups treated with the total saponins from Radix et Rhizoma Notoginseng and/or aspirin were administrated intragastrically with the total saponins from Radix et Rhizoma Notoginseng and/or aspirin for a week, and rats in the sham operated group and model group were administrated intragastrically with an equivalent volume of distilled water. […] Real time electrocardiograms of the rats were recorded on a multi-lead physiological recorder available from AD Instruments. Thoracotomy was performed on the rats. An incision of 2 to 3 cm was made at a place between the 3rd and 4th ribs and about 0.5 cm from the left side of the sternum, a chest expander was used to open the ribs, and the pericardium was cut when exhaling to expose the heart. Myocardial ischemia was established by ligating the left coronary artery. […] After being stabilized for 5 minutes, the silk thread was passed through a disposable intravenous infusion hose with a length of about 3.5 cm. After the silk thread was pulled out, the silk thread was gently lifted, and the hose was pushed down and was fixed with a hemostatic forceps. […] The ligation was considered successful if: the ST segment was elevated, and the color of local myocardial tissue changed from red to gray; and after 30 minutes of reperfusion, the ST segment fell by more than 50%, and the color of myocardial tissue changed from gray to red. After the reperfusion was completed, blood was taken from the abdominal aorta and analyzed on an automatic biochemical analyzer to detect the levels of three myocardial enzymes (AST, LDH, CK) in plasma.

[7] = tested on: myocardial ischemia reperfusion injury model rats; experiment: Myocardial infarction volume by TTC staining in myocardial ischemia-reperfusion injury rats; conditions: x ± s
Method: 240 male SD rats were randomly divided into 8 groups, with 30 rats in each group, including a sham operated group, a myocardial ischemia reperfusion injury model group, a group treated with the total saponins from Radix et Rhizoma Notoginseng at a dosage of 50 mg/kg, a group treated with aspirin at a dosage of 10 mg/kg, a group treated with aspirin at a dosage 5 mg/kg, a group treated with the combination of the total saponins from Radix et Rhizoma Notoginseng at a dosage of 50 mg/kg and aspirin at a dosage of 5 mg/kg. […]
The rats were anesthetized by intraperitoneal injection of pentobarbital sodium at a dose of 40 mg/kg body weight, and were connected to a small animal ventilator through an oral cannula, with a respiratory rate of 70 breaths/min, a respiratory ratio of 1:1, and a tidal volume of 1 mL. Real time electrocardiograms of the rats were recorded on a multi-lead physiological recorder available from AD Instruments. […]
Myocardial infarction volumes were evaluated by triphenyl tetrazolium chloride (TTC) staining. […] Myocardial infarction volumes were evaluated and calculated using Image-Pro plus 5.1 software

[8] = aspirin 5 mg/kg intragastrically for a week
[9] = aspirin 10 mg/kg intragastrically for a week
[10] = aspirin 5 mg/kg intragastrically for a week before MCAO
[11] = aspirin 10 mg/kg intragastrically for a week before MCAO

## CC(=O)Oc1ccccc1C(=O)O [aspirin]
[1]; [8]
  Maximum platelet aggregation rate (%): 56.80%
[1]; [9]
  Maximum platelet aggregation rate (%): 62.63%
Rat duodenal microvilli
  microvilli on the duodenal surface (electron microscope) compared with the control group: the microvilli on the duodenal surface decreased
[2]; [10]
  Volume of cerebral infarction: 16.08
[2]; [11]
  Volume of cerebral infarction: 13.96
[3]; [10]
  Score (neurological deficit, Longa): 1.83
[3]; [11]
  Score (neurological deficit, Longa): 1.08
Rat gastric mucosa
  gastric mucosa pathology (HE staining) compared with the control group: gastric mucosal epithelial cells were necrotic and inflammatory cells infiltrated
[4]; aspirin 5 mg/kg
  Canine urea levels in cerebral cortex tissue: 8.95 µg/L
  Canine urea levels in hippocampus: 2.11 µg/L
  Canine urea levels in serum: 18.00 µg/L
[4]; aspirin 10 mg/kg
  Canine urea levels in cerebral cortex tissue: 8.12 µg/L
  Canine urea levels in hippocampus: 2.01 µg/L
  Canine urea levels in serum: 17.25 µg/L
[5]; aspirin 5 mg/kg
  IL-1β: 168.58 pg/mL
  IL-4: 36.57 pg/mL
  IL-6: 47.12 pg/mL
[5]; aspirin 10 mg/kg
  IL-1β: 189.69 pg/mL
  IL-4: 35.45 pg/mL
  IL-6: 47.15 pg/mL
[6]; [8]
  AST(U/L): 312.48 U/L
  CK(U/L): 1823.49 U/L
  LDH(U/L): 1105.54 U/L
[6]; [9]
  AST(U/L): 204.32 U/L
  CK(U/L): 1222.54 U/L
  LDH(U/L): 811.85 U/L
[7]; [8]
  Myocardial infarction volume (%): 9.88%
[7]; [9]
  Myocardial infarction volume (%): 8.75%
